Measurements reported in patent publication US20230293517A1, “ANTAGONIST COMPOUNDS” (AdoRx Therapeutics Limited, priority 2020, published 2023).

Experiments:
[1] = molecular target: human Adenosine A2a receptor (Homo sapiens (Human), UniProt P29274); assay: Adenosine receptor TR-FRET binding assay (A2a); conditions: inhibition of binding of 100 nM CA200645, CHO cell membranes
Summary of the method: (§1)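 In this homogeneous assay, test compounds compete with tracer CA200645 for Tb-labelled human adenosine receptors expressed in CHO cell membranes over 2 h at room temperature. Tracer levels differ by subtype: 30 nM for A2b, 100 nM for A1, A2a and A3. Specific FRET signal yields IC50, converted to Ki.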

[2] = molecular target: human Adenosine A1 receptor (Homo sapiens (Human), UniProt P30542); assay: Adenosine receptor TR-FRET binding assay (A1); conditions: inhibition of binding of 100 nM CA200645, CHO cell membranes
human Adenosine A1 receptor, sequence (P30542 whole entry): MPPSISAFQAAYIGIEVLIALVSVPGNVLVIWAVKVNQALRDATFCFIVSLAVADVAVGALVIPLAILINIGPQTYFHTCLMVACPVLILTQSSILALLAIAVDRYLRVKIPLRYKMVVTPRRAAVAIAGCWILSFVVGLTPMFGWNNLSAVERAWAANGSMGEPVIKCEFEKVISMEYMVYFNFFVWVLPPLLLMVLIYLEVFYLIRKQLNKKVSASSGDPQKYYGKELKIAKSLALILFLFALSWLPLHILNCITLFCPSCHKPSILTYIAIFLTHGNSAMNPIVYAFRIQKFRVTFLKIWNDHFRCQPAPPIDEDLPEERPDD
Summary of the method: as §1

[3] = molecular target: human Adenosine A3 receptor (Homo sapiens (Human), UniProt P0DMS8); assay: Adenosine receptor TR-FRET binding assay (A3); conditions: inhibition of binding of 100 nM CA200645, CHO cell membranes
human Adenosine A3 receptor, sequence (P0DMS8 whole entry): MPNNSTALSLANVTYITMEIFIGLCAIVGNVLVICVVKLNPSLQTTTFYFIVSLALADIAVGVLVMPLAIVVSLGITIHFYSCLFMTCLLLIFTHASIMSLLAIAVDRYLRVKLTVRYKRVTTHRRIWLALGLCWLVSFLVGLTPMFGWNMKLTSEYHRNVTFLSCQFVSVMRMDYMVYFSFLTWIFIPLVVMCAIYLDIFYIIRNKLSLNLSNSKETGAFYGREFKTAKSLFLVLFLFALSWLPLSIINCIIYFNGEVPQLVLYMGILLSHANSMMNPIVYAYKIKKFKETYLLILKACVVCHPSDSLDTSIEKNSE
Summary of the method: as §1

[4] = molecular target: human Adenosine A2b receptor (Homo sapiens (Human), UniProt P29275); assay: Adenosine receptor TR-FRET binding assay (A2b); conditions: TR-FRET, inhibition of binding of 30 nM CA200645, CHO cell membranes
human Adenosine A2b receptor, sequence (P29275 whole entry): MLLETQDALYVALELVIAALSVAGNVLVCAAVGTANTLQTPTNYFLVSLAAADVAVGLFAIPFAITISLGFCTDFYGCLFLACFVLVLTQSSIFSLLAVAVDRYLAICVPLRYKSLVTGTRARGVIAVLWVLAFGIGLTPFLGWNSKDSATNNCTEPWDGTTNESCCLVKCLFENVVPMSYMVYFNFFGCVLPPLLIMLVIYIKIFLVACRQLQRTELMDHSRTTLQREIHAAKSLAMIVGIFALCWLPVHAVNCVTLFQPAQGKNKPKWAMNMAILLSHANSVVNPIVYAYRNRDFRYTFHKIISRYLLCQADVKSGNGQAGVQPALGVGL
Summary of the method: as §1

human Adenosine A2a receptor, sequence (P29274 whole entry): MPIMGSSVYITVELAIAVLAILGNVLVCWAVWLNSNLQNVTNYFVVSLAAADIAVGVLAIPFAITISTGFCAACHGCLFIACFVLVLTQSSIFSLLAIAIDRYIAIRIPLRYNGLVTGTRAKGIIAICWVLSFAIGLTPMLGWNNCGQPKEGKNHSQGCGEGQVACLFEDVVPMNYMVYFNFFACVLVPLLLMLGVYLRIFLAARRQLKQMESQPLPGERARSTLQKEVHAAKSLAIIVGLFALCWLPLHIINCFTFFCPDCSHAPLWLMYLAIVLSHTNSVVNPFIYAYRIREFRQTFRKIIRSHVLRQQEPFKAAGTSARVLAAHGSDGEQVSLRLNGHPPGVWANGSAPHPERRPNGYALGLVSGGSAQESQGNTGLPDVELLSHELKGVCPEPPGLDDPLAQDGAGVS

Ki [1] [nM] | Ki [2] [nM] | Ki [3] [nM] | Ki [4] [nM] | Compound
3.16 | 63 | 106 | 10.7 | Cc1cc(-c2sc(NC(=O)N3CC(=O)N[C@@H](C)C3)nc2-c2cccc(C#N)c2)cc(C)n1 [Example 6.90, (3S)-N-[4-(3-Cyanophenyl)-5-(2,6-dimethyl-4-pyridyl)thiazol-2-yl]-3-methyl-5-oxo-piperazine-1-carboxamide]
1.05 | 29 | 560 | 4.6 | Cc1cc(-c2sc(NC(=O)N3CCC(S(C)(=O)=O)CC3)nc2-c2cccc(C#N)c2)cc(C)n1 [Example 6.95, N-[4-(3-Cyanophenyl)-5-(2,6-dimethyl-4-pyridyl)thiazol-2-yl]-4-methylsulfonyl-piperidine-1-carboxamide]
1.1 | 30 | 853 | 3 | CC(=O)N1C[C@H]2C[C@@H]1CN2C(=O)Nc1nc(-c2cccc(C#N)c2)c(-c2cc(C)nc(C)c2)s1 [Example 6.101, (1R,4R)-5-Acetyl-N-[4-(3-cyanophenyl)-5-(2,6-dimethyl-4-pyridyl)thiazol-2-yl]-2,5-diazabicyclo[2.2.1]heptane-2-carboxamide]
7.42 | 64 | 195 | 10.5 | Cc1cc(-c2sc(NC(=O)N3C[C@@H]4C[C@H]3CN4C)nc2-c2cccc(C#N)c2)cc(C)n1 [Example 6.102, (1S,4S)-N-[4-(3-Cyanophenyl)-5-(2,6-dimethyl-4-pyridyl)thiazol-2-yl]-5-methyl-2,5-diazabicyclo[2.2.1]heptane-2-carboxamide]
0.68 | 61 | 475 | 1.7 | Cc1cc(-c2sc(NC(=O)N3CCC4(CC3)CN(C)C(=O)N4)nc2-c2cccc(C#N)c2)cc(C)n1 [Example 6.103, N-[4-(3-Cyanophenyl)-5-(2,6-dimethyl-4-pyridyl)thiazol-2-yl]-3-methyl-2-oxo-1,3,8-triazaspiro[4.5]decane-8-carboxamide]
1.37 | 69 | 156 | 2.3 | Cc1cc(-c2sc(NC(=O)N3CCC4(CN(C)CCO4)C3)nc2-c2cccc(C#N)c2)cc(C(F)F)n1 (stereo not shown) [Example 6.107, N-[4-(3-Cyanophenyl)-5-[2-(difluoromethyl)-6-methyl-4-pyridyl]thiazol-2-yl]-9-methyl-6-oxa-2,9-diazaspiro[4.5]decane-2-carboxamide]
0.26 | 13 | 956 | 3.6 | Cc1cc(-c2sc(NC(=O)N3CCC(C)(C#N)C3)nc2-c2cccc(C#N)c2)cc(C2COC2)n1 (stereo not shown) [Example 6.110, 3-Cyano-N-[4-(3-cyanophenyl)-5-[2-methyl-6-(oxetan-3-yl)-4-pyridyl]thiazol-2-yl]-3-methyl-pyrrolidine-1-carboxamide]
0.2 | 8 | 337 | 1 | Cc1cc(-c2sc(NC(=O)N3CCC(N)(C#N)CC3)nc2-c2cccc(C#N)c2)cc(C)n1 [Example 7.2, 4-Amino-4-cyano-N-[4-(3-cyanophenyl)-5-(2,6-dimethyl-4-pyridyl)thiazol-2-yl]piperidine-1-carboxamide]
1.83 | 59 | 776 | 1.8 | CC(=O)N=S1(=O)CCN(C(=O)Nc2nc(-c3cccc(C#N)c3)c(-c3cc(C)nc(C)c3)s2)CC1 [Example 8, 1-Acetylimino-N-[4-(3-cyanophenyl)-5-(2,6-dimethyl-4-pyridyl)thiazol-2-yl]-1-oxo-1,4-thiazinane-4-carboxamide]
0.61 | 47 | 2020 | 5.3 | Cc1cc(-c2sc(NC(=O)N3CC4(COC4)C3)nc2-c2cccc(C#N)c2)cc(CO)n1 [Example 9, N-[4-(3-Cyanophenyl)-5-[2-(hydroxymethyl)-6-methyl-4-pyridyl]thiazol-2-yl]-2-oxa-6-azaspiro[3.3]heptane-6-carboxamide]
0.78 | 95 | 1000 | 7 | Cc1cc(-c2sc(NC(=O)N3CCC4(CC3)CNC4=O)nc2-c2cccc(C#N)c2)cc(CO)n1 [Example 9.1]
1.11 | 29 | 1510 | 8.1 | Cc1cc(-c2sc(NC(=O)N3CC[S+]([O-])CC3)nc2-c2cccc(C#N)c2)cc(CO)n1 [Example 9.3]
4.19 | 410 | 1540 | 20.1 | Cc1cc(-c2sc(NC(=O)N3CCN(C4COC4)CC3)nc2-c2cccc(C#N)c2)cc(CO)n1 [Example 9.4]
2.28 | 174 | 699 | 7.5 | Cc1cc(-c2sc(NC(=O)N3CCC4(CC3)C(=O)N(C)C(=O)N4C)nc2-c2cccc(C#N)c2)cc(CO)n1 [Example 9.5]
0.51 | 12 | 369 | 2.9 | Cc1cc(-c2sc(NC(=O)N3CCC(C#N)CC3)nc2-c2cccc(C#N)c2)cc(CO)n1 [Example 9.6]
0.2 | 7 | 1240 | 3.1 | Cc1cc(-c2sc(NC(=O)N3CC4(CCOC4)C3)nc2-c2cccc(C#N)c2)cc(C(C)(C)O)n1 [Example 12.1, N-[4-(3-Cyanophenyl)-5-[2-(1-hydroxy-1-methyl-ethyl)-6-methyl-4-pyridyl]thiazol-2-yl]-6-oxa-2-azaspiro[3.4]octane-2-carboxamide]
5.13 | 54 | 54 | 19.6 | Cc1cc(-c2sc(NC(=O)N3CCNC[C@@H]3C)nc2-c2cccc(C#N)c2)cc(C)n1 [Example 13.4, (2S)-N-[4-(3-Cyanophenyl)-5-(2,6-dimethyl-4-pyridyl)thiazol-2-yl]-2-methyl-piperazine-1-carboxamide]
9.87 | 84 | 226 | 18.8 | Cc1cc(-c2sc(NC(=O)N3CCNC[C@@H]3CO)nc2-c2cccc(C#N)c2)cc(C)n1 [Example 13.5, (2R)-N-[4-(3-Cyanophenyl)-5-(2,6-dimethyl-4-pyridyl)thiazol-2-yl]-2-(hydroxymethyl)piperazine-1-carboxamide]
16.8 | 220 | 133 | 79.7 | Cc1cc(-c2sc(NC(=O)N3CCNC[C@H]3CO)nc2-c2cccc(C#N)c2)cc(C)n1 [Example 13.6, (2S)-N-[4-(3-Cyanophenyl)-5-(2,6-dimethyl-4-pyridyl)thiazol-2-yl]-2-(hydroxymethyl)piperazine-1-carboxamide]
2.38 | 47 | 41 | 12.3 | Cc1cc(-c2sc(NC(=O)N3CCNC[C@H]3C)nc2-c2cccc(C#N)c2)cc(C)n1 [Example 13.8, (2R)-N-[4-(3-Cyanophenyl)-5-(2,6-dimethyl-4-pyridyl)thiazol-2-yl]-2-methyl-piperazine-1-carboxamide]
2.01 | 225 | 646 | 14.9 | Cc1cc(-c2sc(NC(=O)N3CCC4(COCCN4)C3)nc2-c2cccc(C#N)c2)cc(C)n1 (stereo not shown) [Example 13.9]

Compound | Ki [1] [nM] | Ki [2] [nM] | Ki [3] [nM] | Ki [4] [nM]
Cc1cc(-c2sc(NC(=O)N3CC4CC(C3)N4)nc2-c2cccc(C#N)c2)cc(C)n1 [Example 13.7, N-[4-(3-Cyanophenyl)-5-(2,6-dimethyl-4-pyridyl)thiazol-2-yl]-3,6-diazabicyclo[3.1.1]heptane-3-carboxamide] | 7.46 | 174 | 256 | 13.7
